Legend:
[1] = Oral absorption / pharmacokinetics of Compound (I) formulations in cynomolgus monkeys; format: in vivo; conditions: cyno monkeys
Experimental: An aqueous suspension of […] was prepared at 10% solid content. […] Six enteric coated tablets were encapsulated in a size #00 hard gelatin capsule for the cyno PK study. Each cyno monkey was dosed with 2 capsules (12 enteric coated tablets). […] The mean exposure is shown in FIG. 1 with error bars showing the standard deviation.

[2] = Dog pK study (Example 5E), effect of sodium decanoate amount and number of tablets, 100 mg dose; parameters: species or system dogs; conditions: in vivo, iv, 10 mg
Experimental: Blood samples were withdrawn over a period of 72 hours. […] Error bars describe standard deviation. […] Decreasing the amount of sodium decanoate decreased PK exposure at 330 mg of sodium decanoate. […] Table 12 summarizes all of the PK data for all the formulations tested in Example 5.

[3] = Dog pK study (Example 4), 20 mg dose; parameters: species or system dogs; conditions: in vivo, iv, 10 mg
[4] = 0.1 mg/kg IV (0.5 mg), reference

Compound: CCCC[C@H]1C(=O)N(C)[C@@H](CCCC)C(=O)N[C@@H](CC(C)C)C(=O)N[C@H](C(=O)NCC(=O)N[C@@H](Cc2cn(CCOCCOCCCOCCCOCCOCCOCCOCCOCCOCCOCCOCCNC(=O)CC[C@H](NC(=O)CCCCCCCCCCCCCCCCC(=O)O)C(=O)O)nn2)C(=O)O)CSCC(=O)N[C@@H](Cc2ccc(O)cc2)C(=O)N(C)[C@@H](C)C(=O)N[C@@H](CC(N)=O)C(=O)N2CCC[C@H]2C(=O)N[C@@H](CN)C(=O)N[C@@H](CC(C)C)C(=O)N2C[C@H](O)C[C@H]2C(=O)N[C@@H](Cc2c[nH]c3ccccc23)C(=O)N[C@@H](CCN)C(=O)N[C@@H](Cc2cn(CC(=O)O)c3ccccc23)C(=O)N1C [Compound (I)]
- AUC0-24 h (nM · h) Mean ([1]; 0.1 mg/kg IV (0.5 mg)): 47.61351 µM·h
- AUCinf (nM · h) Mean ([1]; 0.1 mg/kg IV (0.5 mg)): 51.96595 µM·h
- Cmax ([1]; 0.1 mg/kg IV (0.5 mg)): 798 nM
- BA (%) Mean [1, 4]: 100.00%
- BA (%) using AUCInf Mean [1, 4]: 100.00%
- plasma concentration of Compound (I) over time ([1]; oral, 12 mg, formulated as in Example 1, 72 hours): good plasma concentration
- AUCinf (ng · h/mL) Mean [2]: 1198.53803 µg·h/mL
- Cmax (ng/mL) Mean [2]: 25466.29 ng/mL
- AUCinf (ng · h/mL) Mean [3]: 1198.53803 µg·h/mL
- Cmax (ng/mL) Mean [3]: 25466.29 ng/mL

— US20260263552A1, “PHARMACEUTICAL COMPOSITIONS FOR IMPROVING ORAL BIOAVAILABILITY” (priority 2023, published 2026)
